Assay results taken from patent US20230250083A1, “CRYSTALS” (NIPPON SHINYAKU CO., LTD., priority 2017, published 2023).

Columns and labels:
Format in all cases: physicochemical
[1] = Solvent-mediated transformation test; conditions: for Crystal form after 1 day / Crystal form after 5 days: stirred at room temperature
Protocol: Each solvent was added to the Form-I crystal of the compound A, and the mixture was stirred at room temperature for 24 hours, and then, insolubles was filtered to prepare a saturated solution. Mixed crystals (about 10 mg) in which the Form-I crystal and the Form-II crystal were mixed at 1:1 were added to each solution, and the resultant mixture was stirred at room temperature for 5 days. Formed crystals were collected through filtration, and the crystal form thereof was confirmed.

[2] = Crystallization experiments using various solvents, overall outcome; conditions: operation procedures 1 to 4, Tables 1 to 3
Protocol: Each of various solvents was added to the Form-I crystal of the present invention (several mg), crystals of the compound A were precipitated according to the following operation procedures, and the crystal form of the precipitated crystals was confirmed. The results of the operation procedures 1 to 3 are shown in Table 1 and Table 2, and the results of the operation procedure 4 are shown in Table 3. The symbol “-” in Table 1 to Table 3 means that no precipitate was obtained.

[3] = Stability test (sealed glass bottle, 90° C.)
Protocol: The Form-II crystal of the compound A was put in a glass bottle, and the glass bottle was tightly sealed and stored at 90° C. The sample was taken out after 1 day, 3 days, and 7 days, and was dissolved in methanol at a concentration of 1 mg/mL. Each solution was subjected to measurement of analogs by HPLC. As for the crystals after 7 days, the crystal form was confirmed.

[4] = acetone:water 20:80 saturated with Form-I
[5] = acetonitrile saturated with Form-I
[6] = 90° C., after 1 day, tightly sealed glass bottle
[7] = 90° C., after 3 days, tightly sealed glass bottle
[8] = 90° C., after 7 days, tightly sealed glass bottle

## C[C@H](Nc1cc(-c2cnn(C)c2)cc(Nc2cnccn2)n1)c1ccc(F)cc1.O=C(O)/C=C\C(=O)O [Form-I + Form-II (1:1)]
[1]; [4]
  Crystal form after 1 day: Form-I
  Crystal form after 5 days: Form-I
[1]; [5]
  Crystal form after 1 day: Form-I
  Crystal form after 5 days: Form-I
[1]; after 5 days, in acetonitrile, ethyl acetate, and water-containing acetone at room temperature
  crystal form transformation of mixed crystals: all transformed to the Form-I crystal
[1]; ethyl acetate saturated with Form-I
  Crystal form after 5 days: Form-I

## C[C@H](Nc1cc(-c2cnn(C)c2)cc(Nc2cnccn2)n1)c1ccc(F)cc1.O=C(O)/C=C\C(=O)O [Form-I crystal of the present invention]
[1]; acetonitrile, ethyl acetate, water-containing acetone at room temperature
  thermodynamic stability in solvent: thermodynamically stable
[2]
  crystallization from various solvents (which form crystallizes): preferentially crystallized

## C[C@H](Nc1cc(-c2cnn(C)c2)cc(Nc2cnccn2)n1)c1ccc(F)cc1.O=C(O)/C=C\C(=O)O [Form-II]
[3]; [6]
  Appearance: no change
  HPLC area (%): 99.7%
[3]; [7]
  Appearance: no change
  HPLC area (%): 99.8%
[3]; [8]
  Appearance: no change
  Crystal form after 7 days: Form-II
  HPLC area (%): 99.6%
[3]; Before storage
  Appearance: pale yellow crystal
  HPLC area (%): 99.7%
[2]; listed as Form-II crystal of the present invention
  crystallization from various solvents (which form crystallizes): crystallized only in water-containing systems
